Among the data in PubChem BioAssay (NCI) are TGI and GI50 values, retold here.

SMILES strings stand for the structures. Values joined by “and” are separate entries in the source; they are usually repeats but may differ in a detail not shown here. Equal entries are not always repeated.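 1) Cells in 96-well plates. 2) Compound, 48 h, 5 concentrations. 3) Linear interpolation between surrounding doses. 4) Unreached endpoint = highest concentration. The concentration for 50% growth inhibition is given as GI50. At the TGI there is no net growth.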 Bounds are passed on as bounds.

Test systems include A498 renal; CAKI-1 renal; CCRF-CEM leukemia; DU-145 prostate; EKVX NSCLC; HOP-62 NSCLC; SF-295 CNS; SK-OV-3 ovarian; SN12C renal; TK-10 renal.
Experiment in all cases: growth of human tumour cells (NCI), 48 h

With `COC1C(O)C(C)OC(OC2C(Oc3cccc4c(O)c5c(=O)oc6ccc(C)c7c(=O)oc(c34)c5c67)OC(C)C3O[C@H](c4ccccc4)OC32)C1O` (stereo not given in full), the TGI is 1.11 µM in the experiment on A498 renal; 0.616 µM and 5.28 µM in the experiment on CAKI-1 renal; 8.82 µM in the experiment with CCRF-CEM leukemia; 3.19 µM in the experiment on DU-145 prostate; 5.99 µM in the experiment with EKVX NSCLC; 2.17 µM with HOP-62 NSCLC. Besides, the TGI is 3.97 µM in the experiment on SF-295 CNS, 7.94 µM with SK-OV-3 ovarian, 6.17 µM in the experiment with SN12C renal and 7.37 µM in the experiment on TK-10 renal. For the same compound, the GI50 in the experiment on CAKI-1 renal is 0.134 µM; in the experiment with CCRF-CEM leukemia it was 0.0752 µM and 0.0731 µM; in the experiment on DU-145 prostate it was 0.484 µM; in the experiment on HOP-62 NSCLC it was 0.15 µM; in the experiment on SN12C renal it was 0.173 µM.

Turning to `C=C1C(=O)O[C@H]2[C@H]1CC/C(Cn1cc(CNCCc3c[nH]c4ccc(Cl)cc34)nn1)=C\CC[C@@]1(C)O[C@@H]21`, the GI50 in the experiment with A498 renal was 12.8 µM; in the experiment with CAKI-1 renal, 15.2 µM; in the experiment with CCRF-CEM leukemia it was 1.72 µM; with DU-145 prostate it was 5.95 µM; in the experiment on EKVX NSCLC it was 15.5 µM; in the experiment with HOP-62 NSCLC it was 67.5 µM. Moreover, the GI50 with SF-295 CNS is 30.9 µM; in the experiment with SK-OV-3 ovarian it was 35 µM; in the experiment on SN12C renal, 2.54 µM; with TK-10 renal, 2.29 µM. Besides, the TGI is 34.5 µM in the experiment on A498 renal; 28.7 µM with CAKI-1 renal; 5.08 µM in the experiment with CCRF-CEM leukemia; 18.5 µM in the experiment on DU-145 prostate; 37.4 µM with EKVX NSCLC; over 100 µM in the experiment with HOP-62 NSCLC. Besides, the TGI is over 100 µM in the experiment on SF-295 CNS, over 100 µM in the experiment on SK-OV-3 ovarian, 8.24 µM in the experiment on SN12C renal and 7 µM in the experiment on TK-10 renal.

On to `CC1=CC[C@@H]2C(C)(C)C(=O)CC[C@@]2(C)[C@@H]1COc1ccc2ccc(=O)oc2c1`, for which the GI50 in the experiment on A498 renal was 6.56 µM; in the experiment with CAKI-1 renal, 9.5 µM; with CCRF-CEM leukemia, 5.48 µM; with DU-145 prostate, 23.6 µM; with EKVX NSCLC, 13.6 µM; in the experiment with HOP-62 NSCLC, 22.3 µM. Moreover, the GI50 is 15.5 µM with SF-295 CNS, 31.9 µM in the experiment with SK-OV-3 ovarian, 27.3 µM with SN12C renal and 45.3 µM in the experiment with TK-10 renal. For the same compound, the TGI in the experiment with A498 renal was over 100 µM; in the experiment on CAKI-1 renal, 80.8 µM; in the experiment with CCRF-CEM leukemia, 70.9 µM; in the experiment on DU-145 prostate, 93.6 µM; with EKVX NSCLC, over 100 µM; in the experiment on HOP-62 NSCLC, 85.1 µM. For the same compound, the TGI with SF-295 CNS was 44.3 µM; in the experiment with SK-OV-3 ovarian, over 100 µM; in the experiment with SN12C renal, over 100 µM; with TK-10 renal, over 100 µM.

On to `Cc1c(C)c2c(c(C)c1NC(=O)/C=C\C(=O)O)CCC(C)(CCCC(C)CCCC(C)CCCC(C)C)O2` (stereo not given), for which the GI50 is 1.38 µM in the experiment with A498 renal; 1.49 µM in the experiment with CAKI-1 renal; 1.79 µM in the experiment on CCRF-CEM leukemia; 1.69 µM in the experiment on DU-145 prostate; 1.57 µM in the experiment with EKVX NSCLC; 1.64 µM with HOP-62 NSCLC. Also, the GI50 with SF-295 CNS was 1.32 µM; in the experiment on SK-OV-3 ovarian it was 1.73 µM; in the experiment with SN12C renal it was 1.73 µM; in the experiment on TK-10 renal, 1.84 µM. Also, the TGI in the experiment on A498 renal was found to be 2.7 µM; in the experiment with CAKI-1 renal it was 3.12 µM; in the experiment on CCRF-CEM leukemia it was 6.11 µM; in the experiment with DU-145 prostate it was 3.05 µM; with EKVX NSCLC, 3.37 µM; in the experiment on HOP-62 NSCLC, 3.08 µM. Further, the TGI in the experiment with SF-295 CNS was found to be 2.77 µM; with SK-OV-3 ovarian, 3.25 µM; in the experiment on SN12C renal it was 3.3 µM; with TK-10 renal, 3.39 µM.

`COc1cc([N+](=O)[O-])c(S(=O)(=O)O)cc1NS(=O)(=O)c1ccc(C)cc1`: the TGI with A498 renal, in the experiment on CAKI-1 renal, in the experiment with CCRF-CEM leukemia, with DU-145 prostate, in the experiment with EKVX NSCLC and in the experiment on HOP-62 NSCLC was over 100 µM each time. In addition, the TGI in the experiment on SF-295 CNS, in the experiment on SK-OV-3 ovarian, in the experiment on SN12C renal and in the experiment with TK-10 renal was over 100 µM each time.

For the compound `CCNC(C)(C)C(SS)c1ccc(Br)cc1` (stereo not given), the TGI is over 100 µM in the experiment on A498 renal; over 100 µM in the experiment with CAKI-1 renal; 60 µM with CCRF-CEM leukemia; over 100 µM in the experiment on DU-145 prostate; over 100 µM with EKVX NSCLC; over 100 µM in the experiment on HOP-62 NSCLC. Moreover, the TGI in the experiment on SF-295 CNS, in the experiment on SK-OV-3 ovarian, with SN12C renal and in the experiment with TK-10 renal was over 100 µM throughout.

With `O=C(COc1ccc(/C=C2\Oc3ccccc3C2=O)cc1)Nc1nccs1`, the GI50 in the experiment on A498 renal is 54.1 µM; in the experiment with CAKI-1 renal, 12.1 µM; in the experiment with CCRF-CEM leukemia, 1.52 µM; in the experiment on DU-145 prostate, 71 µM; with EKVX NSCLC, 51.5 µM; in the experiment with HOP-62 NSCLC, 85.3 µM. For the same compound, the GI50 in the experiment with SF-295 CNS is 41.4 µM; with SK-OV-3 ovarian it was over 100 µM; in the experiment with SN12C renal, 76.9 µM; in the experiment with TK-10 renal, 85.1 µM. Besides, the TGI is over 100 µM in the experiment with A498 renal; over 100 µM with CAKI-1 renal; 3.27 µM in the experiment on CCRF-CEM leukemia; over 100 µM in the experiment with DU-145 prostate; over 100 µM with EKVX NSCLC; over 100 µM in the experiment on HOP-62 NSCLC. The TGI in the experiment on SF-295 CNS, with SK-OV-3 ovarian, in the experiment on SN12C renal and with TK-10 renal was over 100 µM each time.

Take `COc1cc(N2CCN(C(C)C)CC2)ccc1Nc1nc(Nc2cccc3ncccc23)c2cc[nH]c2n1`: the GI50 in the experiment with A498 renal is 0.811 µM; in the experiment with CAKI-1 renal it was 10 µM; in the experiment with CCRF-CEM leukemia it was 6.36 µM; in the experiment on DU-145 prostate it was 6.55 µM; in the experiment on EKVX NSCLC, 8.83 µM; with HOP-62 NSCLC, 3.18 µM. Also, the GI50 in the experiment with SF-295 CNS is 5.46 µM; in the experiment on SK-OV-3 ovarian, 5.58 µM; in the experiment with SN12C renal, 15.7 µM; in the experiment on TK-10 renal it was 3.97 µM. The TGI in the experiment with A498 renal is 12 µM; in the experiment on CAKI-1 renal it was over 25 µM; in the experiment on CCRF-CEM leukemia, over 22.4 µM; with DU-145 prostate, 24.6 µM; with EKVX NSCLC, over 25 µM; with HOP-62 NSCLC, over 14.9 µM. Further, the TGI in the experiment on SF-295 CNS is 17.9 µM; in the experiment with SK-OV-3 ovarian, 19.1 µM; in the experiment on SN12C renal, over 25 µM; in the experiment with TK-10 renal it was 19.4 µM.

For the compound `Cc1csc(/C=N/NC(=O)c2nnn(-c3ccnc4c(C(F)(F)F)cccc34)c2C)c1`, the GI50 is 83.1 µM in the experiment on A498 renal; 64.6 µM in the experiment on CAKI-1 renal; 56.8 µM with CCRF-CEM leukemia; over 100 µM in the experiment with DU-145 prostate; over 100 µM in the experiment on EKVX NSCLC; 63.5 µM in the experiment on HOP-62 NSCLC. Further, the GI50 in the experiment with SF-295 CNS is 34.7 µM; in the experiment on SK-OV-3 ovarian, 28.7 µM; in the experiment with SN12C renal, 71.4 µM; with TK-10 renal it was 41.8 µM. Further, the TGI with A498 renal, in the experiment on CAKI-1 renal, with CCRF-CEM leukemia, in the experiment on DU-145 prostate, in the experiment on EKVX NSCLC and in the experiment with HOP-62 NSCLC was over 100 µM throughout. Also, the TGI with SF-295 CNS, with SK-OV-3 ovarian, with SN12C renal and with TK-10 renal was over 100 µM in each case.

As to `NC(=O)c1cc(-c2ccncc2)cc(-c2ccccc2)c1N`, the GI50 in the experiment on A498 renal was 4.64 µM; in the experiment with CAKI-1 renal, 8.34 µM; in the experiment on CCRF-CEM leukemia it was over 25 µM; in the experiment on DU-145 prostate, over 22.9 µM; in the experiment with EKVX NSCLC, over 20.2 µM; in the experiment on HOP-62 NSCLC it was over 25 µM. The GI50 was over 25 µM in the experiment with SF-295 CNS, 11.5 µM in the experiment with SK-OV-3 ovarian, 12.9 µM in the experiment on SN12C renal and 6.43 µM with TK-10 renal. Moreover, the TGI was 21.9 µM with A498 renal; over 25 µM in the experiment with CAKI-1 renal; over 25 µM in the experiment on CCRF-CEM leukemia; over 25 µM in the experiment on DU-145 prostate; over 25 µM in the experiment with EKVX NSCLC; over 25 µM in the experiment on HOP-62 NSCLC. The TGI in the experiment on SF-295 CNS, with SK-OV-3 ovarian, with SN12C renal and with TK-10 renal was over 25 µM throughout.

As for `CN(Cc1cnc(N)nc1N)c1ccc(C(=O)O)cc1`, the GI50 in the experiment on A498 renal is 4.25 µM; with CAKI-1 renal, over 100 µM; in the experiment on CCRF-CEM leukemia, over 100 µM; with DU-145 prostate, over 100 µM; with EKVX NSCLC, over 100 µM; in the experiment on HOP-62 NSCLC it was over 100 µM. Also, the GI50 in the experiment with SF-295 CNS, in the experiment on SK-OV-3 ovarian, in the experiment with SN12C renal and in the experiment with TK-10 renal was over 100 µM in each case. Further, the TGI in the experiment on A498 renal, in the experiment on CAKI-1 renal, in the experiment on CCRF-CEM leukemia, in the experiment on DU-145 prostate, with EKVX NSCLC and in the experiment on HOP-62 NSCLC was over 100 µM in each case. Besides, the TGI in the experiment with SF-295 CNS, in the experiment with SK-OV-3 ovarian, with SN12C renal and with TK-10 renal was over 100 µM each time.

Regarding `NC1=NC(c2ccc(Cl)cc2)N(c2ccc(S(=O)(=O)Nc3ncccn3)cc2)C(N)=N1` (stereo not given), the TGI in the experiment on A498 renal, in the experiment with CAKI-1 renal, with CCRF-CEM leukemia, with DU-145 prostate, with EKVX NSCLC and in the experiment with HOP-62 NSCLC was over 100 µM throughout. In addition, the TGI in the experiment on SF-295 CNS, in the experiment with SK-OV-3 ovarian, in the experiment with SN12C renal and with TK-10 renal was over 100 µM in each case.
